# Like-named read-outs stand apart in the source and are kept apart here.
# Legend:
# [1] = molecular target: Recombinant human Cbl-b (aa 36-427) (Homo sapiens, UniProt Q13191); assay: Cbl-b Biochemical Assay (TR-FRET)
# [2] = molecular target: T1, Recombinant human c-Cbl (aa 47-435) (Homo sapiens, UniProt P22681); assay: c-Cbl Biochemical Assay (TR-FRET)
# T1 sequence (P22681 47-435): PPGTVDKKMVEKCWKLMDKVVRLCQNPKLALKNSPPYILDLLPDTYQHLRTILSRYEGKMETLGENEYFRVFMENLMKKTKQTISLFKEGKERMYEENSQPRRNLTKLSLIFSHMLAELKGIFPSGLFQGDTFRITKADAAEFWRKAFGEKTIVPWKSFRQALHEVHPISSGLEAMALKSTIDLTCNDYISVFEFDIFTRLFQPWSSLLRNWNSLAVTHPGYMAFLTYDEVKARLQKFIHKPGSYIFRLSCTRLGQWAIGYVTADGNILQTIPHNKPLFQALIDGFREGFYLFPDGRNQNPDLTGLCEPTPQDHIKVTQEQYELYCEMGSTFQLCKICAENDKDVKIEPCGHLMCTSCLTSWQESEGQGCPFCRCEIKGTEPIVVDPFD
# [3] = test system: Jurkat (clone E6-1) cells with NFAT luciferase reporter; assay: Jurkat reporter assay (NFAT Luciferase); type: cell-based
# [4] = hc-Cbl Biochemical Assay (TR-FRET), read-out: TR-FRET hcCbl IC50
# [5] = Homo sapiens, Jurkat NFAT luciferase reporter cells, anti-CD3 stimulation, 6 hr, read-out: Jurkat NFAT EC50
# [6] = Homo sapiens, Jurkat, 6 h, read-out: Jurkat NFAT EC50 (μM)
# Sequence of Recombinant human Cbl-b (aa 36-427) (Q13191 36-427): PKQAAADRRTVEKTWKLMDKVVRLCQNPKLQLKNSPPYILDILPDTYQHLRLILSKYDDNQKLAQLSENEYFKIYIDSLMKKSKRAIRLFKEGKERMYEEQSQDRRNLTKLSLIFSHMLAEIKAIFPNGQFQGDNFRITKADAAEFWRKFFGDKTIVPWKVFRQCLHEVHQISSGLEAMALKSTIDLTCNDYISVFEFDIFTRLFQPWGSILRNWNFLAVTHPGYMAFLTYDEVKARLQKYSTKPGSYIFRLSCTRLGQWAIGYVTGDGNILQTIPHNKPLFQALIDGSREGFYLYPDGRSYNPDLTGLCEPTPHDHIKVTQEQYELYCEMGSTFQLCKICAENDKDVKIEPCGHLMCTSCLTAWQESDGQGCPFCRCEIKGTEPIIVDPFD
SMILES,IC50 ([1]; read-out: TR-FRET hCbl-b IC50) [nM],"IC50 [2, 4] [nM]","EC50 [3, 5] [µM]","EC50 [3, 6] [µM]",IC50 [1] [nM],IC50 [2] [nM],"EC50 ([3]; Jurkat NFAT luciferase reporter cells, anti-CD3 stimulation, 6 hr, read-out: Jurkat NFAT EC50) [µM]"
"Cn1cnnc1-c1cc(F)ccc1-c1cc(-c2nc3cc(CO)ccc3o2)cc(C2CC2)c1 [AEP-2, {2-[5-cyclopropyl-4′-fluoro-2′-(4-methyl-1,2,4-triazol-3-yl)-[1,1′-biphenyl]-3-yl]-1,3-benzoxazol-5-yl}methanol]",200 to 1000,200 to 1000,1 to 10,–,–,–,–
"C[C@H]1CCCN(Cc2cc(C(F)(F)F)c3oc(-c4cc(-c5ccccc5-c5nncn5C)cc(C5CC5)n4)nc3c2)C1 [AAP-7, 2-{6-Cyclopropyl-4-[2-(4-methyl-1,2,4-triazol-3-yl)phenyl]pyridin-2-yl}-5-{[(3S)-3-methylpiperidin-1-yl]methyl}-7-(trifluoromethyl)-1,3-benzoxazole]",< 200,1000 to 10000,–,0.2 to 1,–,–,–
"C[C@H]1CCCN(Cc2cc(C(F)(F)F)c3oc(-c4cc(-c5ccc(F)cc5-c5nncn5C)cc(C5CC5)n4)nc3c2)C1 [ADO-1, 2-{6-Cyclopropyl-4-[4-fluoro-2-(4-methyl-1,2,4-triazol-3-yl)phenyl]pyridin-2-yl}-5-{[(3S)-3-methylpiperidin-1-yl]methyl}-7-(trifluoromethyl)-1,3-benzoxazole]",< 200,< 200,< 0.2,–,–,–,–
"Cn1cnnc1-c1cc(F)ccc1-c1cc(-c2nc3cc(CN)cc(F)c3o2)nc(C2CC2)c1 [AHM-3, 1-(2-{6-cyclopropyl-4-[4-fluoro-2-(4-methyl-1,2,4-triazol-3-yl)phenyl]pyridin-2-yl}-7-fluoro-1,3-benzoxazol-5-yl)methanamine]",< 200,200 to 1000,–,1 to 10,–,–,–
"CO[C@@H]1CCCN(Cc2cc(C(F)(F)F)c3oc(-c4cccc(-c5ccc(F)cc5-c5nncn5C)c4)nc3c2)C1 [JR-2, (R)-2-(4′-Fluoro-2′-(4-methyl-4H-1,2,4-triazol-3-yl)-[1,1′-biphenyl]-3-yl)-5-((3-methoxypiperidin-1-yl)methyl)-7-(trifluoromethyl)benzo[d]oxazole]",< 200,200 to 1000,0.2 to 1,–,–,–,–
"Cn1cnnc1-c1cc(F)ccc1-c1cc(-c2nc3cc(CN[C@@H]4CCC[C@@H]4O)cc(F)c3o2)nc(C2CC2)c1 [AFB-2, (1S,2R)-2-{[(2-{6-Cyclopropyl-4-[4-fluoro-2-(4-methyl-1,2,4-triazol-3-yl)phenyl]pyridin-2-yl}-7-fluoro-1,3-benzoxazol-5-yl)methyl]amino}cyclopentan-1-ol]",–,–,< 0.2,–,< 200,< 200,–
"C[C@H]1CCCN(Cc2cc(C(F)(F)F)c3[nH]c(-c4cc(-c5ccc(F)cc5-c5nncn5C)cc(C5CC5)n4)nc3c2)C1 [AAZ-10, (S)-2-(6-Cyclopropyl-4-(4-fluoro-2-(4-methyl-4H-1,2,4-triazol-3-yl)phenyl)pyridin-2-yl)-5-((3-methylpiperidin-1-yl)methyl)-7-(trifluoromethyl)-1H-benzo[d]imidazole]",< 200,1000 to 10000,0.2 to 1,–,–,–,–
"Cn1cnnc1[C@]1(c2cccc(-c3nc4cc(CN[C@@H]5CCC[C@@H]5O)cc(C(F)(F)F)c4o3)c2)C[C@@H](C)C1 [ADE-3, (1S,2R)-2-{[(2-{3-[(1r,3s)-3-Methyl-1-(4-methyl-1,2,4-triazol-3-yl)cyclobutyl]phenyl}-7-(trifluoromethyl)-1,3-benzoxazol-5-yl)methyl]amino}cyclopentan-1-ol]",< 200,< 200,–,–,–,–,< 0.2
"Cn1cnnc1-c1cc(F)ccc1-c1cccc(-c2nc3cc(CN[C@@H]4CCC[C@@H]4O)cc(C(C)(C)C)c3o2)c1 [EV-9, (1S,2R)-2-(((7-(tert-Butyl)-2-(4′-fluoro-2′-(4-methyl-4H-1,2,4-triazol-3-yl)-[1,1′-biphenyl]-3-yl)benzo[d]oxazol-5-yl)methyl)amino)cyclopentan-1-ol]",< 200,< 200,< 0.2,–,–,–,–
"COC(=O)C1(c2cc(F)c3oc(-c4cc(-c5ccc(F)cc5-c5nncn5C)cc(C5CC5)n4)nc3c2)CC1 [AGM-8, Methyl 1-(2-{6-cyclopropyl-4-[4-fluoro-2-(4-methyl-1,2,4-triazol-3-yl)phenyl]pyridin-2-yl}-7-fluoro-1,3-benzoxazol-5-yl) cyclopropane-1-carboxylate]",200 to 1000,1000 to 10000,1 to 10,–,–,–,–

# Second part, led by results:
IC50 ([1]; read-out: TR-FRET hCbl-b IC50) [nM],"IC50 [2, 4] [nM]","EC50 [3, 5] [µM]",SMILES,"EC50 [3, 6] [µM]",IC50 [1] [nM],IC50 [2] [nM],"EC50 ([3]; Jurkat NFAT luciferase reporter cells, anti-CD3 stimulation, 6 hr, read-out: Jurkat NFAT EC50) [µM]"
< 200,< 200,< 0.2,"Cc1cc(CNCC2CCC2)cc2nc(-c3cc(-c4ccc(F)cc4-c4nncn4C)cc(C4CC4)n3)oc12 [AFF-1, 1-Cyclobutyl-N-((2-(6-cyclopropyl-4-(4-fluoro-2-(4-methyl-4H-1,2,4-triazol-3-yl)phenyl)pyridin-2-yl)-7-methylbenzo[d]oxazol-5-yl)methyl)methanamine]",–,–,–,–
< 200,< 200,0.2 to 1,"CO[C@@H](C)CNCc1cc(F)c2oc(-c3cc(-c4ccc(F)cc4-c4nncn4C)cc(C4CC4)n3)nc2c1 [AFO-2, [(2-{6-Cyclopropyl-4-[4-fluoro-2-(4-methyl-1,2,4-triazol-3-yl)phenyl]pyridin-2-yl}-7-fluoro-1,3-benzoxazol-5-yl)methyl][(2S)-2-methoxypropyl]amine]",–,–,–,–
< 200,1000 to 10000,1 to 10,"Cn1cnnc1-c1ccccc1-c1cc(-c2nc3cc(CN4CCC5(CC5)C4)cc(C(F)(F)F)c3[nH]2)nc(C2CC2)c1 [AAS-2, 5-((5-Azaspiro[2.4]heptan-5-yl)methyl)-2-(6-cyclopropyl-4-(2-(4-methyl-4H-1,2,4-triazol-3-yl)phenyl)pyridin-2-yl)-7-(trifluoromethyl)-1H-benzo[d]imidazole]",–,–,–,–
< 200,1000 to 10000,0.2 to 1,"CN(Cc1cc(C(F)(F)F)c2oc(-c3cccc(-c4ccc(F)cc4-c4nncn4C)c3)nc2c1)CC(C)(C)O [AP-2, 1-(((2-(4′-Fluoro-2′-(4-methyl-4H-1,2,4-triazol-3-yl)-[1,1′-biphenyl]-3-yl)-7-(trifluoromethyl)benzo[d]oxazol-5-yl)methyl)(methyl)amino)-2-methylpropan-2-ol]",–,–,–,–
< 200,< 200,< 0.2,"COCCNCc1cc(C)c2oc(-c3cc(-c4ccc(F)cc4-c4nncn4C)cc(C4CC4)n3)nc2c1 [AEZ-1, [(2-{6-Cyclopropyl-4-[4-fluoro-2-(4-methyl-1,2,4-triazol-3-yl)phenyl]pyridin-2-yl}-7-methyl-1,3-benzoxazol-5-yl)methyl](2-methoxyethyl)amine]",–,–,–,–
< 200,< 200,< 0.2,"Cn1cnnc1-c1cc(F)ccc1-c1cccc(-c2nc3cc(CNCC4CCC4)cc(C4CC4)c3o2)c1 [FT-1, 1-Cyclobutyl-N-((7-cyclopropyl-2-(4′-fluoro-2′-(4-methyl-4H-1,2,4-triazol-3-yl)-[1,1′-biphenyl]-3-yl)benzo[d]oxazol-5-yl)methyl)methanamine]",–,–,–,–
< 200,< 200,< 0.2,"Cn1cnnc1-c1cc(Cl)ccc1-c1ccnc(-c2nc3cc(CN[C@@H]4CCC[C@@H]4O)cc(C(F)(F)F)c3o2)c1 [AER-8, (1S,2R)-2-(((2-(4-(4-Chloro-2-(4-methyl-4H-1,2,4-triazol-3-yl)phenyl)pyridin-2-yl)-7-(trifluoromethyl)benzo[d]oxazol-5-yl)methyl)amino)cyclopentan-1-ol]",–,–,–,–
< 200,1000 to 10000,1 to 10,"Cn1cnnc1-c1cc(F)ccc1-c1cccc(-c2nc3cc(CN4CCCC[C@H]4CO)cc(C(F)(F)F)c3o2)c1 [JB-2, (S)-(1-((2-(4′-Fluoro-2′-(4-methyl-4H-1,2,4-triazol-3-yl)-[1,1′-biphenyl]-3-yl)-7-(trifluoromethyl)benzo[d]oxazol-5-yl)methyl)piperidin-2-yl)methanol]",–,–,–,–
< 200,< 200,< 0.2,"Cn1cnnc1-c1cc(F)ccc1-c1cccc(-c2nc3cc(CNCC4(O)CCC4)ccc3o2)c1 [DQ-1, 1-((((2-(4′-Fluoro-2′-(4-methyl-4H-1,2,4-triazol-3-yl)-[1,1′-biphenyl]-3-yl)benzo[d]oxazol-5-yl)methyl)amino)methyl)cyclobutan-1-ol]",–,–,–,–
< 200,< 200,< 0.2,"Cc1cc([C@@H](C)NCC2CCC2)cc2nc(-c3cc(-c4ccc(F)cc4-c4nncn4C)cc(C4CC4)n3)oc12 [AGY-1, (cyclobutylmethyl)[(1R)-1-(2-{6-cyclopropyl-4-[4-fluoro-2-(4-methyl-1,2,4-triazol-3-yl)phenyl]pyridin-2-yl}-7-methyl-1,3-benzoxazol-5-yl)ethyl]amine]",–,–,–,–
< 200,1000 to 10000,0.2 to 1,"COCC(C)(C)NCc1cc(C)c2oc(-c3cc(-c4ccc(F)cc4-c4nncn4C)cc(C4CC4)n3)nc2c1 [AGJ-1, [(2-{6-Cyclopropyl-4-[4-fluoro-2-(4-methyl-1,2,4-triazol-3-yl)phenyl]pyridin-2-yl}-7-methyl-1,3-benzoxazol-5-yl)methyl](1-methoxy-2-methylpropan-2-yl)amine]",–,–,–,–
< 200,200 to 1000,1 to 10,"CO[C@@H](CO)c1cc(C(F)(F)F)c2oc(-c3cccc(-c4ccc(F)cc4-c4nncn4C)c3)nc2c1 (single isomer, unassigned) [EG-3]",–,–,–,–

# Source: patent publication US20250163038A1, “CBL-B MODULATORS AND USES THEREOF” (Nimbus Clio, Inc., priority 2021, published 2025)
